Experimental data taken from US20070037783A1, “Migrastatin analogs and uses thereof” (priority 2003, published 2007).
Where two headings read alike, the source gives them in different places.

Key:
[1] = test system: 4T1 mouse breast tumor cells; test: Boyden chamber cell migration assay with 4T1 tumor cells; assay type: cell-based; conditions: for IC50: chamber cell migration, 6-8 h, average of three experiments, read-out: IC50 (4T1 tumor cells)
Procedure: The biological evaluation of the compounds (in terms of their ability to inhibit cell migration) was accomplished in a Boyden chamber cell migration assay. In this assay, mouse breast tumor cells (4T1 cells) or endothelial cells (HUVECs) are seeded on the upper chamber of a transwell insert. Growth factor-containing serum is added to the lower chamber.
Chamber Cell Migration Assay (Tables 4 and 6): Cell migrations were assayed with Boyden chambers [8.0 μm pore size, polyethylene terephthalate membrane, FALCON cell culture insert (Becton-Dickinson)]. 4T1 mouse breast tumor cells or HUVECs were trypsinized and counted. 300 μl of 5-10×10^4 cells in serum-free medium was added to the upper chamber and 500 μl of medium with 10% fetal bovine serum (FBS) was added to the lower chamber. […] Cells on the inside of the transwell inserts were removed with a cotton swab, and cells on the underside of the insert were fixed and stained. Photographs of three random regions were taken and the number of cells was counted to calculate the average number of cells that have transmigrated.

[2] = rcm bond, Grubbs-II, toluene, 111.0 °C, 0.25 h
[3] = test system: HUVEC; test: Tube formation assay (preliminary, Table 1); assay type: cell-based, human; conditions: minimal concentration causing definite disturbance of tube network, 16-18 h, tested 200, 100, 50, 25, 10 μM
Procedure: 1. Tube Formation Assay (Table 1):
A protocol was designed based on the instructions from the provider (BD Bioscience, San Jose, Calif.). Briefly, wells of a 48 well culture dish were covert with 150 μL matrigel and the matrigel was gelatinized for 30 min at 37° C. A 80-90% confluent HUVEC (BD Bioscience, San Jose, Calif.) culture was trypsin treated, the detached cells were collected by centrifugation and resuspended in EGM-2 media (BD Bioscience, San Jose, Calif.). Cell concentration was adjusted to 100.000 cells/mL. 400 μL of the cell suspension were filled in the matrigel coated wells, and a solution of the inhibitor was added to the intended final concentration. The plates were incubated at 37° C. with 5% CO2 for 16-18 h. Media was removed, and the matrigel surface was washed twice with 500 μL PBS before cells were labeled with 250 μL 8 μM Calcein AM (Pierce, Rockford, Ill.) in PBS for 30 min at 37° C. After two additional washing steps (500 μL PBS) cells were visualized under an inverted microscope. Fluorescence was excited at 488 nm and recorded at 538 nm. The minimum effect concentration was defined as the minimal inhibitor concentration that caused a definite disturbance of the complexity of the formed tube network.

[4] = test system: adherent cells (e.g. KYSE-520 cells); test: Wound healing (scratch) assay (preliminary, Table 2); assay type: cell-based; conditions: 28 to 30 h, compared to 100 μM Migrastatin, tested 200, 100, 50, 25, 10 μM
Procedure: 2. Wound Healing Assay (Table 2)
The wound healing assay was performed based on the method described by Nakae et al. (Nakae et al., J. Antibiotics (2000), 53, 1130-1136). Briefly, adherent cells were grown in a suitable media to confluence (e.g. KYSE-520 cells in RPMI-1640 with 10% FBS). Cells were starved for 24 h in serum free media. A scratch (ca. 0.5 mm) was applied and the cell layer was washed twice with PBS after removal of the media. Fresh, serum free media with the test compound at the desired concentration was added and the cells were incubated for 28 to 30 h at 37° C., 5% CO2. The scratch size was compared to that observed for cells exposed to 100 μM Migrastatin. Test compounds associated with a scratch size equal to or larger than that observed for cells exposed to 100 μM Migrastatin were deemed to have cell migration inhibitory activity at least equal to Migrastatin.

[5] = test system: HUVECs (human umbilical vein endothelial cells); test: Boyden chamber cell migration assay with HUVECs; assay type: cell-based; conditions: chamber cell migration; average of three experiments; read-out: IC50 (HUVEC)
Procedure: Chamber Cell Migration Assay (Tables 4 and 6): Cell migrations were assayed with Boyden chambers [8.0 μm pore size, polyethylene terephthalate membrane, FALCON cell culture insert (Becton-Dickinson)]. 4T1 mouse breast tumor cells or HUVECs were trypsinized and counted. 300 μl of 5-10×10^4 cells in serum-free medium was added to the upper chamber and 500 μl of medium with 10% fetal bovine serum (FBS) was added to the lower chamber. The transwells were incubated for 6-8 h at 37° C. with different concentrations of chemical compound in both upper and lower chamber. Cells on the inside of the transwell inserts were removed with a cotton swab, and cells on the underside of the insert were fixed and stained. Photographs of three random regions were taken and the number of cells was counted to calculate the average number of cells that have transmigrated.

[6] = test system: 4T1 tumor lung metastasis; test: 4T1 tumor lung metastasis in syngeneic mice (6-thioguanine clonogenic assay); assay type: in vivo, BALB/c mice; conditions: for lung metastasis colonies: lungs Day 28, mean and standard deviation
From the text: Inhibition of metastasis of mouse breast tumors by migrastatin alogs in mice. 4T1 mouse breast tumor cell line was isolated from a single spontaneously arising mammary tumor from a BALB/BfC3H mouse (MMTV+).^62 The 4T1 tumor closely mimics human breast cancer in its anatomical site, immunogenecity, growth characteristics, and metastatic properties.^63 From the mammary gland, 4T1 tumor spontaneously metastasizes to a variety of target organs including the lung, bone, brain, and liver through primarily a hematogenous rout.^64
To assess the efficacy of therapeutic application of migrastatin analogs in the 4T1 murine mammary carcinoma models, we administered migrastatin analogs (macroketone and macrolactam) to BALB/c mice carrying the 4T1 tumors.
Female BALB/c mice (6-8 week old) were purchased from the Jackson Laboratory (Bar Harbor, Me.). All mice were housed at the Weill Medical College of Cornell University Animal Facilities in accordance with the Principles of Animal Care (NIH publication no. 85-23, revised 1985). 4T1 tumor cells (1×10^5) were injected subcutaneously into the abdominal mammary gland area of mice in 0.1 ml of a single-cell suspension in phosphate buffered saline (PBS) on Day 0. The dosage of tumor implantation was empirically determined to give rise to tumor of ˜10 mm in diameter in untreated wild type mice in 21-23 days. On Day 7, when the tumors averaged in size ˜4-5 mm in diameter, migrastatin analogs or control PBS saline were given every day by intraperitoneal injection at 10 mg/kg or 20 mg/kg per mouse until Day 25. On Day 28, the mice were sacrificed. This regiment of migrastatin analogs was well tolerated with no signs of overt toxicity. Every group included five mice. Primary tumors were measured using electronic calipers on the day when the mice were sacrificed. Tumor size was the square root of the product of two perpendicular diameters. Numbers of metastatic 4T1 cells in lung were determined by the clonogenic assay.^63 In brief, lungs were removed from each mouse on Day 28, finely minced and digested in 5 ml of enzyme cocktail containing 1× PBS and 1 mg/ml collagenase type IV for 2 hours at 37° C. on a platform rocker. After incubation, samples were filtered through 70 uM nylon cell strainers and washed twice with PBS. Resulting cells were suspended and plated serially diluted in 10 cm tissue culture dishes in medium RPMI1640 containing 60 uM thioguanine for clonogenic growth. 6-Thioguanine-resistant tumor cells formed foci after 14 days, at which time they were fixed with methanol and stained with 0.03% methylene blue for counting.
Treatment 4T1 tumor lung metaotmis in smgencie mice with Kigrastatin analogs (See, FIG. 4). 4T1 tumor cells (10^5) were injected s.c. in the abdominal mammary gland with 0.1 ml of a single-cell suspension. Macroketone or macrolactam at 10 mg/kg or 20 mg/kg was given i.p. on Day 7 when the tumor size was about 5 mm in diameter, and everyday until Day 25. On Day 28, the mice were sacrificed. Each group comprised five mice. Lung metastasis was measured by the 6-thiogunine clonogenic assay. The mean and standard deviation are presented. In the control group (daily PBS injection), there were 61300±18900 colonies.

[7] = Mouse plasma stability study (HPLC); assay type: in vitro ADME
Procedure: Mouse Plasma Stability Studies (Table 5): HPLC conditions: The sample is injected and separated using an Inertsil ODS3 6u 3×150 mm column with a mobile phase of MeCN and water (50% for migrastatin) at a flow of 0.4 mL/min, monitored at 220 nm at 0.02 AUFS (the retention time for migrastatin is ca. 4 min, the identity of this peak was confirmed by mass spectral analysis). Incubation and sample preparation conditions: A solution (ca. 30 mM) of chemical compound (Table 5) in DMSO is prepared. 2 μL of the solution is added to a mixture containing 200 μL of mouse plasma and 800 μL of PBS. The resulting solution is put into a water bath at 37° C., and 100 μL of sample is withdrawn at 10, 20, 30, 45, and 60 min. The precipitate is removed by centrifugation and 20 μL of the supernatant is injected onto the HPLC.

**Q.** For `CO[C@H]1/C=C/CCCCC(O)CC/C(C)=C\[C@@H](C)[C@@H]1O` (some centres unmarked) [macrocyclic secondary alcohol (69), Macrocyclic Secondary Alcohol], which IC50 [1] is on record?
**A.** 8900 nM

**Q.** Which ring closure, yield of all isomers ([2]; from C=CCC/C=C/C(=O)O[C@@H](/C(C)=C\[C@@H](C)[C@H](O[Si](C)(C)C(C)(C)C)[C@H](C=C)OC)[C@H](C)C(=O)CCCC1CC(=O)NC(=O)C1, 0.46 mM) does the source give for `CO[C@H]1C=CCC/C=C/C(=O)O[C@H]([C@H](C)C(=O)CCCC2CC(=O)NC(=O)C2)/C(C)=C\[C@@H](C)[C@@H]1O[Si](C)(C)C(C)(C)C` here?
**A.** 69%

**Q.** With `COC1C=CCCCCC(=O)OC(C(C)C(=O)CCCC2CC(=O)NC(=O)C2)C(C)=CC(C)C1O` (centres unmarked) [2,3-dihydromigrastatin (41), 2,3-Dihydromigrastatin] as the molecule, how does the Minimum effect concentration [3] read?
**A.** 50 µM

**Q.** What about the Minimum effect concentration [4] of the same molecule?
**A.** 25 µM

**Q.** And the IC50 [1]?
**A.** 10000 nM

**Q.** With `CO[C@H]1/C=C/CCCCC(=NO)CC/C(C)=C\[C@@H](C)[C@@H]1O` [macrooxime (72), Macrooxime] as the molecule, how does the IC50 [1] read?
**A.** 2300 nM

**Q.** For `CO[C@H]1/C=C/CCCCC(=O)OC/C(C)=C\[C@@H](C)[C@@H]1OC(C)=O` [acetylated macrolactone (49), Acetylated Macrolactone], which IC50 [1] is on record?
**A.** 192 nM

**Q.** For `CN1c2ccccc2C(=O)N2CCc3c([nH]c4ccccc34)[C@H]21` [evodiamine, reference compound], which IC50 ([1]; Mus musculus) is on record?
**A.** 315 nM

**Q.** Which IC50 [1] does the source give for “N-Methyl-2,3-Dihydromigrastatin [N-methyl-2,3-dihydromigrastatin (42)]” here?
**A.** 7000 nM

**Q.** Which “effect on 4T1 tumor cell migration in the chamber assay, in words” value ([1]; chamber assay) does the source give for `CO[C@H]1/C=C/CCCCC(O)(C(F)(F)F)CC/C(C)=C\[C@@H](C)[C@@H]1O` (some centres unmarked) [macrocyclic CF3-alcohol (71), Macrocyclic CF3-Alcohol] here?
**A.** displays the same activity profile as macroketone 60

**Q.** And the IC50 [1]?
**A.** 101 nM

**Q.** For `CO[C@@H](/C=C/CCCCC(=O)O)[C@@H](O)[C@H](C)/C=C(/C)CO` [hydrolyzed core (51), Hydrolyzed Core], which IC50 [1] is on record?
**A.** 378 nM

**Q.** For `COC1C=CCCCCC(=O)NCC(C)=CC(C)C1O` (centres unmarked) [macrolactam (55), Macrolactam], which IC50 [1] is on record?
**A.** 255 nM

**Q.** What about the IC50 [5] of the same molecule?
**A.** 18000 nM

**Q.** And the “inhibition of lung metastasis” value ([6]; 10 mg/kg i.p. daily Day 7-25)?
**A.** ~91%

**Q.** What about the lung metastasis colonies ([6]; 10 mg/kg i.p. daily Day 7-25) of the same molecule?
**A.** 5333±1778 colonies

**Q.** What about the “inhibition of lung metastasis” value ([6]; 20 mg/kg i.p. daily Day 7-25) of the same molecule?
**A.** ~91%

**Q.** What about the lung metastasis colonies ([6]; 20 mg/kg i.p. daily Day 7-25) of the same molecule?
**A.** 5675±6263 colonies

**Q.** Which ring closure, yield of all isomers ([2]; from C=CCCCCC(=O)O[C@@H](/C(C)=C\[C@@H](C)[C@H](O[Si](C)(C)C(C)(C)C)[C@H](C=C)OC)[C@H](C)C(=O)CCCC1CC(=O)NC(=O)C1, 0.48 mM) does the source give for `CO[C@H]1C=CCCCCC(=O)O[C@H]([C@H](C)C(=O)CCCC2CC(=O)NC(=O)C2)/C(C)=C\[C@@H](C)[C@@H]1O[Si](C)(C)C(C)(C)C` here?
**A.** 79%

**Q.** With `CO[C@H]1C=CCCCCC(=O)NC/C(C)=C\[C@@H](C)[C@@H]1O[Si](C)(C)C(C)(C)C` as the molecule, how does the ring closure, yield of all isomers ([2]; from C=CCCCCC(=O)NC/C(C)=C\[C@@H](C)[C@H](O[Si](C)(C)C(C)(C)C)[C@H](C=C)OC, 0.709 mM) read?
**A.** 60%

**Q.** Which IC50 [1] does the source give for `CO[C@H]1/C=C/CCCCC(C)(O)CC/C(C)=C\[C@@H](C)[C@@H]1O` (some centres unmarked) [macrocyclic tertiary alcohol (70), Marocyclic Tertiary Alcohol] here?
**A.** 3100 nM

**Q.** What does the source list for `COC1C=CCCC=CC(=O)OCC(C)=CC(C)C1O` (centres unmarked) [migrastatin core (45), Migrastatin Core]?
**A.** IC50 [5]: 150 nM; stability (t1/2, mouse plasma) ([7]; mouse plasma/PBS, 37° C., sampled up to 60 min): 20 min; stability (mouse plasma), in words ([7]; stable = intensity of HPLC signal unchanged over 60 min of incubation): hydrolyzed rapidly

**Q.** With N-Methyl-migrastatin as the molecule, how does the Minimum effect concentration [3] read?
**A.** 200 µM

**Q.** And the Minimum effect concentration [4]?
**A.** 100 µM
